We go through 20 molecules from patent US20230061736A1, “GPR119 AGONISTS” (Kallyope, Inc., priority 2019, published 2023).

This test has as its target T1, human GPR119 (hGPR119) (Homo sapiens, UniProt Q8TDV5).
T1 construct: expressed in transfected cells
T1 sequence (Q8TDV5 1-335): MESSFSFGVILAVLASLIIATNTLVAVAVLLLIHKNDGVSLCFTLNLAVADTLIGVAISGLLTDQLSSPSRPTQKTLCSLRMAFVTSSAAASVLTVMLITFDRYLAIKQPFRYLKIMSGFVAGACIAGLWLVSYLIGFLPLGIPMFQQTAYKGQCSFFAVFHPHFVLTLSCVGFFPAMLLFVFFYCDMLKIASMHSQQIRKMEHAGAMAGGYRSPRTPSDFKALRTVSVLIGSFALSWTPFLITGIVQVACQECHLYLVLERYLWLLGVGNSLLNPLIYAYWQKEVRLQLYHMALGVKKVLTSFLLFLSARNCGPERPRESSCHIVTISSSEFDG
Put plainly: cAMP accumulation assay (cAMP Gs dynamic HTRF kit). It counts as cell-based. The settings on record: CHO-K1 cells stably expressing hGPR119, 4-parameter fit; for Emax: 1 h, % activity normalized to Max/Min controls; for EC50: cAMP accumulation. The procedure, abridged: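 Read-out is HTRF 665/620 nm ratio after 1 h detection at ambient temperature, converted to % activity against positive and negative controls, EC50 and Max activity by 4-parameter fit. Compounds were titrated onto ~10,000 thawed hGPR119-CHO-K1 cells/well for 60 min at 37° C/5% CO2.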
For orientation: Cyclic AMP is a second messenger, typically raised through Gs and lowered through Gi signalling.

Regarding `O=C(Cc1c(F)cc(OCCCC2CCN(c3ncc(Cl)cn3)CC2)cc1F)N1CC[C@@H](CNCC(CO)(CO)CO)C1` [Example 151, 2-[4-[3-[1-(5-chloropyrimidin-2-yl)-4-piperidyl]propoxy]-2,6-difluoro-phenyl]-1-[(3S)-3-[[[3-hydroxy-2,2-bis(hydroxymethyl)propyl]amino]methyl]pyrrolidin-1-yl]ethanone], the maximum response (Emax) is ≥ 130% and the EC50 was ≤ 100 nM.

As for `COCc1cnc(N2CCC(CCCOc3cc(F)c(CC(=O)N4CC[C@H](C(=O)NC[C@H](O)[C@@H](O)[C@H](O)[C@H](O)CO)C4)c(F)c3)CC2)nc1` [Example 131, (3S)-1-[2-[2,6-difluoro-4-[3-[1-[5-(methoxymethyl)pyrimidin-2-yl]-4-piperidyl]propoxy]phenyl]acetyl]-N-[(2S,3R,4R,5R)-2,3,4,5,6-pentahydroxyhexyl]pyrrolidine-3-carboxamide], the maximal effect (Emax) is 100 to 130% and the EC50 was ≤ 100 nM.

With `CCOc1cnc(N2CCC(CCCOc3ccc(CC(=O)N4CC(CC(=O)NCC(O)(CO)CO)C4)c(F)c3)CC2)nc1` [Example 108, N-[2,3-dihydroxy-2-(hydroxymethyl)propyl]-2-[1-[2-[4-[3-[1-(5-ethoxypyrimidin-2-yl)-4-piperidyl]propoxy]-2-fluoro-phenyl]acetyl]azetidin-3-yl]acetamide], the Emax lay in the range of 100 to 130% and the half-maximal effective concentration (EC50) is ≤ 100 nM.

For the molecule `COCc1cnc(N2CCC(CCCCOc3cc(F)c(CC(=O)N4CC(CNC[C@H](O)[C@@H](O)[C@H](O)[C@H](O)CO)C4)c(F)c3)CC2)nc1` (racemic) [Example 85, 2-[2,6-difluoro-4-[4-[1-[5-(methoxymethyl)pyrimidin-2-yl]-4-piperidyl]butoxy]phenyl]-1-[3-[[[rac-(2S,3R,4R,5R)-2,3,4,5,6-pentahydroxyhexyl]amino]methyl]azetidin-1-yl]ethanone], the Emax fell in the range of 100 to 130% and the half-maximal effective concentration (EC50) lay within 100 to 1000 nM.

For `O=C(Cc1c(F)cc(OCCCC2CC23CCN(c2ncc(Cl)cn2)CC3)cc1F)N1CC(CNC[C@H](O)[C@@H](O)[C@H](O)[C@H](O)CO)C1` (stereo partly drawn) [Example 143], the Emax was 100 to 130% and the 50% effective concentration (EC50) was 100 to 1000 nM.

In the case of `O=C(Cc1ccc(OCCCC2CCN(c3ncc(Cl)cn3)CC2)cc1F)NCCC(=O)NC(CO)CO` [Example 19, 3-[[2-[4-[3-[1-(5-chloropyrimidin-2-yl)-4-piperidyl]propoxy]-2-fluoro-phenyl]acetyl]amino]-N-[2-hydroxy-1-(hydroxymethyl)ethyl]propanamide], the Emax fell in the range of 100 to 130% and the EC50 fell in the range of 100 to 1000 nM.

For the molecule `O=C(Cc1c(F)cc(OCCCC2CCN(c3ncc(Cl)cn3)CC2)cc1F)N1CC[C@@H](CNCC(O)(CO)CO)C1` [Example 150, 2-[4-[3-[1-(5-chloropyrimidin-2-yl)-4-piperidyl]propoxy]-2,6-difluoro-phenyl]-1-[(3S)-3-[[[2,3-dihydroxy-2-(hydroxymethyl)propyl]amino]methyl]pyrrolidin-1-yl]ethanone], the maximum response (Emax) was in the range of 100 to 130% and the EC50 is ≤ 100 nM.

Regarding `O=C(NCCNCCC1CN(C(=O)Cc2ccc(OCCCC3CCN(c4ncc(Cl)cn4)CC3)cc2F)C1)NC(CO)(CO)CO` [Example 60, 1-(2-((2-(1-(2-(4-(3-(1-(5-chloropyrimidin-2-yl)piperidin-4-yl)propoxy)-2-fluorophenyl)acetyl)azetidin-3-yl)ethyl)amino)ethyl)-3-(1,3-dihydroxy-2-(hydroxymethyl)propan-2-yl)urea], the Emax was ≥ 130% and the EC50 lay in the range of 100 to 1000 nM.

On to `O=C(Cc1ccc(OCCCC2CCN(c3ncc(Cl)cn3)CC2)cc1F)N1CC[C@@H](CNC[C@H](O)[C@@H](O)[C@H](O)[C@H](O)CO)C1` [Example 98, 2-[4-[3-[1-(5-chloropyrimidin-2-yl)-4-piperidyl]propoxy]-2-fluoro-phenyl]-1-[(3S)-3-[[[(2S,3R,4R,5R)-2,3,4,5,6-pentahydroxyhexyl]amino]methyl]pyrrolidin-1-yl]ethanone], for which the Emax fell in the range of 100 to 130% and the EC50 is ≤ 100 nM.

With `O=C(Cc1ccc(OCCCC2CCN(c3ncc(CO)cn3)CC2)cc1F)N1CC(CNC[C@H](O)[C@@H](O)[C@H](O)[C@H](O)CO)C1` [Example 93, 2-[2-fluoro-4-[3-[1-[5-(hydroxymethyl)pyrimidin-2-yl]-4-piperidyl]propoxy]phenyl]-1-[3-[[[(2S,3R,4R,5R)-2,3,4,5,6-pentahydroxyhexyl]amino]methyl]azetidin-1-yl]ethanone], the Emax is 50 to 100% and the half-maximal effective concentration (EC50) was in the range of 1000 to 10000 nM.

As for `O=C(NC(CO)(CO)CO)[C@H]1CCN(C(=O)Cc2ccc(OCCCC3CCN(c4ncc(Cl)cn4)CC3)cc2F)C1` [Example 103, (3S)-1-[2-[4-[3-[1-(5-chloropyrimidin-2-yl)-4-piperidyl]propoxy]-2-fluoro-phenyl]acetyl]-N-[2-hydroxy-1,1-bis(hydroxymethyl)ethyl]pyrrolidine-3-carboxamide], the Emax is 100 to 130% and the EC50 was ≤ 100 nM.

Take `O=C(Cc1ccc(OCCCC2CCN(c3ncc(Cl)cn3)CC2)cc1F)NCCC(=O)NC(CO)(CO)CO` [Example 20, 3-[[2-[4-[3-[1-(5-chloropyrimidin-2-yl)-4-piperidyl]propoxy]-2-fluoro-phenyl]acetyl]amino]-N-[2-hydroxy-1,1-bis(hydroxymethyl)ethyl]propanamide]: the Emax was ≥ 130% and the EC50 fell in the range of 100 to 1000 nM.

Molecule `O=C(Cc1ccc(OCCCC2CCN(c3ncc(Cl)cn3)CC2)cc1F)NCCO[C@H]1O[C@H](CO)[C@@H](O)[C@H](O)[C@@H]1O` (racemic) [Example 16, 2-[4-[3-[1-(5-chloropyrimidin-2-yl)-4-piperidyl]propoxy]-2-fluoro-phenyl]-N-[2-[rac-(2S,3S,4S,5S,6R)-3,4,5-trihydroxy-6-(hydroxymethyl)tetrahydropyran-2-yl]oxyethyl]acetamide] gave an Emax of 100 to 130% and a concentration giving a half-maximal response (EC50) of 100 to 1000 nM.

In the case of `O=C(Cc1ccc(OCCCC2CCN(c3ncc(Cl)cn3)CC2)cc1F)NCCCCCC(=O)NC(CO)(CO)CO` [Example 18, 6-[[2-[4-[3-[1-(5-chloropyrimidin-2-yl)-4-piperidyl]propoxy]-2-fluoro-phenyl]acetyl]amino]-N-[2-hydroxy-1,1-bis(hydroxymethyl)ethyl]hexanamide], the maximum response (Emax) was 100 to 130% and the EC50 fell in the range of 100 to 1000 nM.

Molecule `O=C(Cc1ccc(OCCCC2CC23CCN(c2ncc(Cl)cn2)CC3)cc1F)N1CC(CNC[C@H](O)[C@@H](O)[C@H](O)[C@H](O)CO)C1` (stereo partly drawn) [Example 142, 2-[4-[3-[6-(5-chloropyrimidin-2-yl)-6-azaspiro[2.5]octan-2-yl]propoxy]-2-fluoro-phenyl]-1-[3-[[[(2S,3R,4R,5R)-2,3,4,5,6-pentahydroxyhexyl]amino]methyl]azetidin-1-yl]ethanone] showed an Emax of 100 to 130% and an EC50 of 100 to 1000 nM.

Regarding `CC(C)OC(=O)N1CCC2(CCC2CCOc2cc(F)c(CC(=O)N3CC(CNC[C@H](O)[C@@H](O)[C@H](O)[C@H](O)CO)C3)c(F)c2)CC1` (stereo partly drawn) [Example 141, isopropyl 3-[2-[3,5-difluoro-4-[2-oxo-2-[3-[[[(2S,3R,4R,5R)-2,3,4,5,6-pentahydroxyhexyl]amino]methyl]azetidin-1-yl]ethyl]phenoxy]ethyl]-7-azaspiro[3.5]nonane-7-carboxylate], the maximum response (Emax) lay in the range of 50 to 100% and the EC50 fell in the range of 1000 to 10000 nM.

The molecule `COCc1cnc(N2CCC(CCCOc3ccc(CC(=O)N4CC(CNCCNC(=O)NC(CO)(CO)CO)C4)c(F)c3)CC2)nc1` [Example 81, 1-[2-[[1-[2-[2-fluoro-4-[3-[1-[5-(methoxymethyl)pyrimidin-2-yl]-4-piperidyl]propoxy]phenyl]acetyl]azetidin-3-yl]methylamino]ethyl]-3-[2-hydroxy-1,1-bis(hydroxymethyl)ethyl]urea] came in with a maximum response (Emax) of 100 to 130%.

For `COCC1(CNC[C@H](O)[C@@H](O)[C@H](O)[C@H](O)CO)CCN(C(=O)Cc2ccc(OCCCC3CCN(c4ncc(Cl)cn4)CC3)cc2F)C1` (stereo partly drawn) [Example 121, 2-[4-[3-[1-(5-chloropyrimidin-2-yl)-4-piperidyl]propoxy]-2-fluoro-phenyl]-1-[3-(methoxymethyl)-3-[[[r(2S,3R,4R,5R)-2,3,4,5,6-pentahydroxyhexyl]amino]methyl]pyrrolidin-1-yl]ethanone], the maximal response (Emax) fell in the range of 100 to 130% and the EC50 was ≤ 100 nM.

`O=C(NC[C@H](O)[C@@H](O)[C@H](O)[C@H](O)CO)[C@H]1CCN(C(=O)Cc2ccc(OCCCC3CCN(c4ncc(Cl)cn4)CC3)cc2F)C1` [Example 127, (3S)-1-[2-[4-[3-[1-(5-chloropyrimidin-2-yl)-4-piperidyl]propoxy]-2-fluoro-phenyl]acetyl]-N-[(2S,3R,4R,5R)-2,3,4,5,6-pentahydroxyhexyl]pyrrolidine-3-carboxamide]: the maximum response (Emax) is ≥ 130% and the EC50 is ≤ 100 nM.

As to `O=C(Cc1c(F)cc(OCCC2CC(C3CCN(c4ncc(Cl)cn4)CC3)C2)cc1F)N1CC(CNC[C@H](O)[C@@H](O)[C@H](O)[C@H](O)CO)C1` (stereo partly drawn) [Example 124, 2-[4-[2-[3-[1-(5-chloropyrimidin-2-yl)-4-piperidyl]cyclobutyl]ethoxy]-2,6-difluoro-phenyl]-1-[3-[[[(2S,3R,4R,5R)-2,3,4,5,6-pentahydroxyhexyl]amino]methyl]azetidin-1-yl]ethanone], the Emax is 100 to 130% and the EC50 is ≤ 100 nM.

The term Emax denotes the maximal effect, on the per cent scale that the assay sets. The term EC50 denotes the concentration needed to bring the measured effect to its halfway point. The low end stands for a more potent agent, the high end for a less potent agent.
